In US7745619B2, “Vinca derivatives” (priority 2003, dated 2010):

Key:
[1] = system: SW-620; assay: NCI 60-cell line growth inhibition assay: SW-620; assay type: cell-based; settings: Homo sapiens
[2] = system: 786-0; assay: NCI 60-cell line growth inhibition assay: 786-0; assay type: cell-based; settings: Homo sapiens
[3] = system: ACHN; assay: NCI 60-cell line growth inhibition assay: ACHN; assay type: cell-based; settings: Homo sapiens
[4] = system: SF-268; assay: NCI 60-cell line growth inhibition assay: SF-268; assay type: cell-based; settings: Homo sapiens, CNS
From the text: (§1) The following data in Table 4 summarize the growth inhibition properties of several compounds of the present invention against 60-human transformed cell lines.

[5] = system: PC-3; assay: NCI 60-cell line growth inhibition assay: PC-3; assay type: cell-based; settings: Homo sapiens
[6] = system: EKVX; assay: NCI 60-cell line growth inhibition assay: EKVX; assay type: cell-based; settings: Homo sapiens
[7] = system: HCT-116; assay: NCI 60-cell line growth inhibition assay: HCT-116; assay type: cell-based; settings: Homo sapiens
[8] = system: NCI-H522; assay type: cell-based; settings: Homo sapiens
[9] = system: HS 578T; assay: NCI 60-cell line growth inhibition assay: HS 578T; assay type: cell-based; settings: Homo sapiens, Hs-578T
[10] = system: NCI/ADR-RES; assay type: cell-based; settings: Homo sapiens
[11] = system: CCRF-CEM; assay: NCI 60-cell line growth inhibition assay: CCRF-CEM; assay type: cell-based; settings: Homo sapiens, Leukemia
From the text: as §1

[12] = system: HCT-15; assay: NCI 60-cell line growth inhibition assay: HCT-15; assay type: cell-based; settings: Homo sapiens
[13] = system: U251; assay: NCI 60-cell line growth inhibition assay: U251; assay type: cell-based; settings: Homo sapiens, U-251
[14] = system: SK-OV-3; assay: NCI 60-cell line growth inhibition assay: SK-OV-3; assay type: cell-based; settings: Homo sapiens
[15] = system: OVCAR-3; assay: NCI 60-cell line growth inhibition assay: OVCAR-3; assay type: cell-based; settings: Homo sapiens
[16] = system: M14; assay: NCI 60-cell line growth inhibition assay: M14; assay type: cell-based; settings: Homo sapiens
[17] = system: SF-295; assay: NCI 60-cell line growth inhibition assay: SF-295; assay type: cell-based; settings: Homo sapiens
[18] = system: CAKI-1; assay: NCI 60-cell line growth inhibition assay: CAKI-1; assay type: cell-based; settings: Homo sapiens
[19] = system: MDA-MB-435; assay: NCI 60-cell line growth inhibition assay: MDA-MB-435; assay type: cell-based; settings: Homo sapiens
[20] = system: OVCAR-8; assay: NCI 60-cell line growth inhibition assay: OVCAR-8; assay type: cell-based; settings: Homo sapiens
[21] = system: A549/ATCC; assay: NCI 60-cell line growth inhibition assay: A549/ATCC; assay type: cell-based; settings: Homo sapiens, A549
[22] = system: HeLa S-3 cells; assay: HeLa GI50 determination (SRB growth inhibition); assay type: cell-based, human; settings: Homo sapiens, HeLa S3, 48 h, read-out: HeLa Cells GI50 (nM)
Procedure, shortened: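 Cells plated at 2×10^4/well; day-0 plate TCA-fixed, test compounds added at 10-fold dilutions for 2 days. SRB staining, absorbance at 490 nm; GI = 100×(T−T0)/(C−T0), GI50 from growth inhibition vs. concentration plots.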

[23] = system: TK-10; assay: NCI 60-cell line growth inhibition assay: TK-10; assay type: cell-based; settings: Homo sapiens
[24] = system: IGROV1; assay: NCI 60-cell line growth inhibition assay: IGROV1; assay type: cell-based; settings: Homo sapiens, IGROV-1, Ovarian
From the text: as §1

[25] = system: SNB-19; assay: NCI 60-cell line growth inhibition assay: SNB-19; assay type: cell-based; settings: Homo sapiens
[26] = system: HOP-62; assay: NCI 60-cell line growth inhibition assay: HOP-62; assay type: cell-based; settings: Homo sapiens
[27] = system: SN12C; assay: NCI 60-cell line growth inhibition assay: SN12C; assay type: cell-based; settings: Homo sapiens
[28] = system: MCF7; assay: NCI 60-cell line growth inhibition assay: MCF7; assay type: cell-based; settings: Homo sapiens
[29] = system: HOP-92; assay: NCI 60-cell line growth inhibition assay: HOP-92; assay type: cell-based; settings: Homo sapiens
[30] = system: SF-539; assay: NCI 60-cell line growth inhibition assay: SF-539; assay type: cell-based; settings: Homo sapiens
[31] = system: MDA-MB-231/ATCC; assay: NCI 60-cell line growth inhibition assay: MDA-MB-231/ATCC; assay type: cell-based; settings: Homo sapiens, MDA-MB-231
[32] = system: MOLT-4; assay: NCI 60-cell line growth inhibition assay: MOLT-4; assay type: cell-based; settings: Homo sapiens
[33] = system: MCF-7 cells; assay: MCF-7 GI50 determination (crystal violet growth inhibition); assay type: cell-based, human; settings: Homo sapiens, MCF7, 96 h, read-out: MCF-7 Cells GI50 (nM)
Procedure, shortened: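 MCF-7 cells seeded at 2×10^4 cells/well, grown 24 h drug-free, then exposed to 10-fold compound dilutions for 4 days. Glutaraldehyde-fixed cells stained with crystal violet, absorbance read at 570 nm; GI=100×(T/T0) against day-0 control OD, GI50 from growth inhibition versus concentration plots.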

[34] = system: UACC-257; assay: NCI 60-cell line growth inhibition assay: UACC-257; assay type: cell-based; settings: Homo sapiens
[35] = system: KM12; assay: NCI 60-cell line growth inhibition assay: KM12; assay type: cell-based; settings: Homo sapiens

Structure (SMILES): CCCC(=O)/C=C/c1ccc2[nH]c3c(c2c1)CCN1C[C@H](C[C@@](O)(CC)C1)C[C@]3(C(=O)OC)c1cc2c(cc1OC)N(C)[C@H]1[C@@](O)(C(=O)OC)[C@H](OC(C)=O)[C@]3(CC)C=CCN4CC[C@]21[C@@H]43 [Example 29, 12′-(3-oxohex-1-enyl)vinblastine]
- GI50 [1]: 1300 nM
- GI50 [2]: < 10 nM
- GI50 [3]: 93.7 nM
- GI50 [4]: 901 nM
- GI50 [5]: 44.2 nM
- GI50 [6]: 10.8 µM
- GI50 [7]: < 10 nM
- GI50 [8]: 31.4 nM
- GI50 [9]: 628 nM
- GI50 [10]: 18100 nM
- GI50 [11]: 28.8 nM
- GI50 [12]: 274 nM
- GI50 [13]: < 0.01 µM
- GI50 [14]: 16.9 nM
- GI50 [15]: 59.7 nM
- GI50 [16]: < 10 nM
- GI50 [17]: 568 nM
- GI50 [18]: 1200 nM
- GI50 [19]: 34.3 nM
- GI50 [20]: 22.6 nM
- GI50 [21]: 28.7 nM
- GI50 [22]: 515 nM
- GI50 [23]: 3240 nM
- GI50 [24]: 1710 nM
- GI50 [25]: < 10 nM
- GI50 [26]: < 10 nM
- GI50 [27]: < 10 nM
- GI50 [28]: 10.5 nM
- GI50 [29]: 9.93 µM
- GI50 [30]: 21 nM
- GI50 [31]: < 10 nM
- GI50 [32]: 11 nM
- GI50 [33]: 515 nM
- GI50 [34]: 19.3 µM
- GI50 [35]: 212 nM

Structure (SMILES): CCC1=C[C@H]2CN(CCc3c([nH]c4ccc(Br)cc34)[C@@](C(=O)OC)(c3cc4c(cc3OC)N(C)[C@H]3[C@@](O)(C(=O)OC)[C@H](OC(C)=O)[C@]5(CC)C=CCN6CC[C@]43[C@@H]65)C2)C1 [Example 97, 12′-bromoanhydro vinblastine]
- GI50 [1]: < 10 nM
- GI50 [2]: < 10 nM
- GI50 [3]: 64.1 nM
- GI50 [4]: < 10 nM
- GI50 [5]: < 10 nM
- GI50 [6]: 10.2 µM
- GI50 [7]: < 10 nM
- GI50 [8]: < 10 nM
- GI50 [9]: < 10 nM
- GI50 [10]: 77.9 nM
- GI50 [11]: < 10 nM
- GI50 [12]: < 10 nM
- GI50 [13]: < 0.01 µM
- GI50 [14]: < 10 nM
- GI50 [15]: < 10 nM
- GI50 [16]: < 10 nM
- GI50 [17]: < 10 nM
- GI50 [18]: 589 nM
- GI50 [19]: < 10 nM
- GI50 [20]: < 10 nM
- GI50 [21]: < 10 nM
- GI50 [22]: 30 nM
- GI50 [23]: < 10 nM
- GI50 [24]: < 10 nM
- GI50 [25]: < 10 nM
- GI50 [26]: < 10 nM
- GI50 [27]: < 10 nM
- GI50 [28]: < 10 nM
- GI50 [29]: 12.2 µM
- GI50 [30]: < 10 nM
- GI50 [31]: < 10 nM
- GI50 [32]: < 10 nM
- GI50 [33]: 50 nM
- GI50 [34]: 3.95 µM
- GI50 [35]: < 10 nM

Structure (SMILES): CC[C@]1(O)C[C@H]2CN(CCc3c([nH]c4ccc(C#Cc5ccccc5)cc34)[C@@](C(=O)OC)(c3cc4c(cc3OC)N(C)[C@H]3[C@@](O)(C(=O)OC)[C@H](OC(C)=O)[C@]5(CC)C=CCN6CC[C@]43[C@@H]65)C2)C1 [Example 19, 12′-(2-phenylethynyl) vinblastine]
- GI50 [1]: 1770 nM
- GI50 [2]: 889 nM
- GI50 [3]: 22000 nM
- GI50 [4]: 731 nM
- GI50 [5]: 280 nM
- GI50 [6]: 2.79 µM
- GI50 [7]: 300 nM
- GI50 [8]: 1810 nM
- GI50 [9]: 1850 nM
- GI50 [10]: 1440 nM
- GI50 [11]: 263 nM
- GI50 [12]: 8350 nM
- GI50 [13]: 9.97 µM
- GI50 [14]: 1880 nM
- GI50 [15]: 207 nM
- GI50 [16]: 260 nM
- GI50 [17]: 293 nM
- GI50 [18]: 557 nM
- GI50 [19]: 60.5 nM
- GI50 [20]: 32200 nM
- GI50 [21]: 37300 nM
- GI50 [22]: > 1000 nM
- GI50 [23]: 313 nM
- GI50 [24]: 2210 nM
- GI50 [25]: 1790 nM
- GI50 [26]: 571 nM
- GI50 [27]: 2470 nM
- GI50 [28]: 396 nM
- GI50 [29]: 0.335 µM
- GI50 [30]: 1790 nM
- GI50 [31]: 2020 nM
- GI50 [32]: 196 nM
- GI50 [33]: 800 nM
- GI50 [34]: 46 µM
- GI50 [35]: 206 nM
